From DBAASP come the findings set out here.

Common to all, as to assay: ≥ marks a high value that may be exact or a test limit, other limits are often not marked, values filed in µg/mL are converted to µM
The test system of assay [1] is Bacillus subtilis.
Assay [2] deals with Pseudomonas aeruginosa.
For assay [3], the system named is Staphylococcus epidermidis.
Assay [4] deals with Escherichia coli ATCC 8739.
For assay [5], the system named is Pseudomonas aeruginosa ATCC 27853.
For assay [6], the system named is Klebsiella pneumoniae.
Assay [7] relates to Escherichia coli ATCC 25922.
In assay [8] the test system is Staphylococcus aureus ATCC 43300.
The test system of assay [9] is Staphylococcus aureus ATCC 6538.
For assay [10], the system named is Escherichia coli ATCC 25726.
Assay [11] relates to Candida albicans ATCC 90028.
The subject of assay [12] is Staphylococcus aureus ATCC 25923.
Assay [13] deals with Klebsiella pneumoniae ATCC 700603.
The subject of assay [14] is Staphylococcus aureus NCTC 8325.
Assay [15] relates to Staphylococcus aureus USA 300.

The structures appear in SMILES notation. Values after ≈ are worked out from the molar mass of the structure shown.

By MIC is commonly meant the lowest concentration found to suppress growth. Low readings indicate greater potency, high ones weaker potency. As to `CC(C)C[C@H](NC(=O)[C@H](CCCCN)NC(=O)[C@H](Cc1c[nH]c2ccccc12)NC(=O)[C@H](C)N)C(=O)N[C@@H](Cc1ccccc1)C(=O)N[C@@H](CC(=O)O)C(=O)N[C@@H](CC(=O)O)C(=O)NCC(=O)N[C@H](C(=O)O)C(C)C` [AWKLFDDGV], the MIC in assay [1] was 30 µM (≈ 31.5 µg/mL); in [2] it was 30 µM (≈ 31.5 µg/mL); in assay [3] it was at least 60 µM; in assay [4], 30 µM (≈ 31.5 µg/mL).
In the case of `CC[C@H](C)[C@H](NC(=O)[C@H](CCCCN)NC(=O)[C@H](CCCN=C(N)N)NC(=O)CNC(=O)[C@H](CC(C)C)NC(=O)[C@H](CCCN=C(N)N)NC(=O)[C@H](CCCN=C(N)N)NC(=O)[C@H](CC(C)C)NC(=O)CNC(=O)CNC(C)=O)C(=O)N[C@@H](CC(C)C)C(=O)N[C@@H](CCCN=C(N)N)C(=O)N[C@@H](C)C(=O)N[C@H](C(=O)N[C@@H](CCCCN)C(=O)N[C@@H](CCCCN)C(=O)N[C@@H](Cc1ccc(O)cc1)C(=O)NCC(N)=O)C(C)C` [GGLRRLGRKILRAVKKYG], the MIC was determined as 8.84 µM (≈ 18.4 µg/mL) in [5], 8.84 µM (≈ 18.4 µg/mL) in [6], 8.84 µM (≈ 18.4 µg/mL) in assay [7] and 4.42 µM (≈ 9.2 µg/mL) in [4].
On to `CC[C@H](C)[C@H](NC(=O)[C@H](CCCCN)NC(=O)[C@H](CC(C)C)NC(=O)CNC(=O)[C@H](CC(C)C)NC(=O)[C@H](CO)NC(=O)[C@H](CCCN=C(N)N)NC(=O)[C@H](CC(C)C)NC(=O)CNC(=O)CNC(C)=O)C(=O)N[C@@H](CC(C)C)C(=O)N[C@@H](CC(C)C)C(=O)N[C@@H](C)C(=O)N[C@@H](Cc1c[nH]c2ccccc12)C(=O)N[C@@H](CCCCN)C(=O)N[C@@H](CCCCN)C(=O)N[C@@H](Cc1ccc(O)cc1)C(=O)NCC(N)=O` [GGLRSLGLKILLAWKKYG], for which the minimum inhibitory concentration (MIC) in [5] is over 100 µM; in [6] it was over 100 µM; in assay [7], over 100 µM; in assay [4] it was at least 100 µM.
Regarding `CC[C@H](C)[C@H](NC(=O)[C@H](CCCCN)NC(=O)[C@@H](NC(=O)[C@H](CO)NC(=O)[C@H](CC(N)=O)NC(=O)[C@H](Cc1c[nH]c2ccccc12)NC(=O)[C@H](CC(C)C)NC(=O)CN)[C@@H](C)CC)C(=O)N[C@@H](C)C(=O)NCC(=O)N[C@@H](CCCCN)C(=O)N[C@@H](CCCCN)C(=O)N[C@@H](CC(C)C)C(=O)N[C@@H](Cc1ccccc1)C(=O)N[C@H](C(=O)N[C@@H](CC(N)=O)C(=O)N[C@H](C(=O)N[C@@H](CC(C)C)C(=O)N[C@@H](CC(=O)O)C(=O)N[C@@H](CCCCN)C(=O)N[C@H](C(=O)N[C@@H](CCCN=C(N)N)C(=O)N[C@H]1CSSC[C@@H](C(=O)N[C@@H](CCCCN)C(=O)N[C@H](C(=O)N[C@@H](CO)C(=O)N2CCC[C@H]2C(=O)N[C@@H](CC(=O)O)C(=O)N[C@H](C(=O)N[C@@H](CCC(=O)O)C(=O)O)C(C)C)[C@@H](C)O)NC(=O)CNC(=O)CNC(=O)[C@H](C)NC(=O)[C@H](C(C)C)NC(=O)[C@H](CCCCN)NC1=O)[C@@H](C)CC)C(C)C)C(C)C` [GLWNSIKIAGKKLFVNVLDKIRCKVAGGCKTSPDVE], the MIC in [8] came to 100 µM (≈ 389 µg/mL); in [4] it was 6.3 µM (≈ 24.5 µg/mL); in assay [9], 6.3 µM (≈ 24.5 µg/mL).
Turning to `CC[C@H](C)[C@H](NC(=O)[C@H](CCCCN)NC(=O)[C@@H](NC(=O)[C@@H](NC(=O)[C@H](CCCCN)NC(=O)CNC(=O)[C@H](CC(C)C)NC(=O)[C@@H](NC(=O)[C@H](CO)NC(=O)CNC(=O)[C@H](C)NC(=O)[C@H](CCCCN)NC(=O)[C@H](CO)NC(=O)[C@H](C)NC(=O)[C@H](CCSC)NC(=O)CN)C(C)C)[C@@H](C)CC)[C@@H](C)O)C(=O)N[C@@H](C)C(=O)N[C@@H](CC(C)C)C(=O)NCC(=O)N[C@@H](C)C(=O)N[C@@H](CC(C)C)C(N)=O` [GMASKAGSVLGKITKIALGAL], the figures for the MIC in [10], in assay [11] and in assay [12] were 12.5 µM (≈ 24.8 µg/mL), at least 50 µM and 100 µM (≈ 199 µg/mL), respectively.
On to `CC[C@H](C)[C@H](NC(=O)[C@H](CCC(=O)O)NC(=O)CNC(=O)[C@H](CC(C)C)NC(=O)[C@H](Cc1ccccc1)NC(=O)[C@H](C)NC(=O)[C@H](CCCCN)NC(=O)CNC(=O)[C@H](Cc1ccccc1)NC(=O)[C@H](CCCCN)NC(=O)CNC(=O)[C@H](C)NC(=O)[C@H](CO)NC(=O)[C@H](Cc1cnc[nH]1)NC(=O)[C@H](CC(C)C)NC(=O)[C@@H](NC(=O)[C@H](CCCCN)NC(=O)[C@H](CO)NC(=O)[C@@H](NC(=O)CN)C(C)C)[C@@H](C)CC)C(=O)N[C@@H](CCSC)C(=O)N[C@@H](CCCCN)C(=O)N[C@@H](CO)C(=O)O` [GVSKILHSAGKFGKAFLGEIMKS], for which the MIC was at least 100 µM in [10]; 200 µM (≈ 481 µg/mL) in [5]; over 100 µM in [12]; 50 µM (≈ 120 µg/mL) in assay [7]; 100 µM (≈ 241 µg/mL) in [13].
Turning to `CC[C@H](C)[C@H](N)C(=O)N[C@@H](CCCCN)C(=O)N[C@H](C(=O)N1CCC[C@H]1C(=O)N[C@@H](C)C(=O)N[C@H](C(=O)N[C@H](C(=O)N[C@@H](CCCCN)C(=O)N[C@@H](CC(=O)O)C(=O)N[C@H](C(=O)N[C@@H](CC(C)C)C(=O)N[C@@H](CCCCN)C(=O)N[C@@H](CCCCN)C(=O)N[C@H](C(=O)N[C@@H](C)C(=O)N[C@@H](CCCCN)C(=O)NCC(=O)N[C@H](C(=O)N[C@@H](CC(C)C)C(=O)N[C@@H](CO)C(=O)N[C@@H](C)C(=O)N[C@H](C(=O)N[C@@H](C)C(=O)NCC(=O)N[C@@H](C)C(=O)N[C@@H](CC(C)C)C(=O)N[C@H](C(=O)N[C@@H](CCC(N)=O)C(=O)O)[C@@H](C)O)C(C)C)C(C)C)C(C)C)[C@@H](C)O)C(C)C)C(C)C)[C@@H](C)CC` [IKIPAVVKDTLKKVAKGVLSAVAGALTQ], the MIC in assay [10] was 20 µM (≈ 56.4 µg/mL); in [11] it was at least 80 µM; in assay [5], 40 µM (≈ 113 µg/mL); in assay [12] it was 40 µM (≈ 113 µg/mL); in [13], 40 µM (≈ 113 µg/mL).
Consider `CC[C@H](C)[C@H](NC(=O)[C@H](C)NC(=O)[C@@H](NC(=O)[C@H](C)NC(=O)CNC(=O)[C@H](CCCCN)NC(=O)[C@@H](NC(=O)[C@H](C)NC(=O)CNC(=O)[C@H](CCCCN)NC(=O)[C@H](CC(C)C)NC(=O)[C@@H](NC(=O)[C@H](CCCCN)NC(=O)[C@H](CCCCN)NC(=O)[C@H](CC(C)C)NC(=O)[C@@H](NC(=O)[C@H](CC(=O)O)NC(=O)[C@H](CCCCN)NC(=O)[C@@H](NC(=O)[C@H](CCC(=O)O)NC(=O)[C@@H]1CCCN1C(=O)[C@H](CO)NC(=O)[C@H](CC(C)C)NC(=O)[C@H](CCCCN)NC(=O)[C@@H](N)CC(C)C)[C@@H](C)O)[C@@H](C)O)C(C)C)[C@@H](C)CC)[C@@H](C)CC)C(=O)N[C@@H](C)C(=O)N[C@@H](CO)C(=O)N[C@@H](CC(C)C)C(=O)N[C@@H](C)C(N)=O` [LKLSPETKDTLKKVLKGAIKGAIAIASLA], for which the MIC in [10] is at least 40 µM; in assay [12], 5 µM (≈ 14.9 µg/mL).
For `CC[C@H](C)[C@H](NC(=O)[C@H](CCCCN)NC(=O)[C@H](CCCCN)NC(=O)[C@H](C)NC(=O)[C@H](CC(C)C)NC(=O)[C@H](CC(N)=O)NC(=O)[C@@H](NC(=O)[C@H](CC(C)C)NC(=O)[C@@H](NC(=O)CNC(=O)[C@H](CC(C)C)NC(=O)[C@H](Cc1ccccc1)NC(=O)[C@@H](N)CC(N)=O)[C@@H](C)O)C(C)C)C(=O)N[C@@H](CC(C)C)C(N)=O` [NFLGTLVNLAKKIL], the MIC is 20 µM (≈ 30.9 µg/mL) in [14]; at least 64 µM in [10]; at least 80 µM in assay [11]; 16 µM (≈ 24.7 µg/mL) in assay [12]; 40 µM (≈ 61.7 µg/mL) in assay [7].
Consider `CC[C@H](C)[C@@H]1NC(=O)[C@@H]2CCCN2C(=O)[C@H](CC(C)C)NC(=O)[C@@H]2CCCN2C(=O)[C@H]([C@@H](C)CC)NC(=O)[C@H](Cc2c[nH]c3ccccc23)NC(=O)[C@H](CO)NC(=O)[C@@H](NC(=O)[C@@H](NC(=O)[C@@H](N)CCCN=C(N)N)C(C)C)CSSC[C@@H](C(=O)N[C@@H](Cc2cnc[nH]2)C(N)=O)NC1=O` [RVCSWIPLPICH], for which the minimum inhibitory concentration (MIC) in assay [10] is at least 500 µM; in assay [12], 250 µM (≈ 355 µg/mL).
Compound `CC[C@H](C)[C@H](NC(=O)[C@H](CCCN=C(N)N)NC(=O)[C@@H](NC(=O)[C@@H](NC(=O)[C@H](CCCCN)NC(=O)[C@@H](NC(=O)[C@H](CC(C)C)NC(=O)[C@@H](NC(=O)[C@@H](NC(=O)[C@H](CCCCN)NC(=O)[C@H](CCCN=C(N)N)NC(=O)[C@H](Cc1ccc(O)cc1)NC(=O)CNC(=O)[C@H](Cc1cnc[nH]1)NC(=O)[C@H](CC(N)=O)NC(=O)[C@@H](N)C(C)C)C(C)C)[C@@H](C)O)[C@@H](C)O)[C@@H](C)O)C(C)C)C(=O)N[C@@H](CCCCN)C(=O)N[C@@H](CCCCN)C(=O)N[C@@H](Cc1ccccc1)C(=O)N[C@@H](CCSC)C(=O)O` [VNHGYRKVTLTKTVRIKKFM] gave an MIC in assay [15] of at least 128 µM.
